# Laboratory results taken from patent US12252524B2, “GIP/GLP1 co-agonist compounds” (Eli Lilly and Company, priority 2018, dated 2025).
# Numbered stars: 1 amine (or outer) side, 2 acyl side, 3 side chain; on linkers, the order of the positions; unused ones are H or OH. Square brackets hold non-standard residues; d marks the D form. Side chains are listed from the residue outwards. Peptide text beside a SMILES is read from it. * marks the point of attachment. C20 diacid = O=C(O)CCCCCCCCCCCCCCCCCCC(=O)*; C18 diacid = O=C(O)CCCCCCCCCCCCCCCCC(=O)*; αMePhe(2-F) = C[C@](N)(Cc1ccccc1F)C(=O)O; C16 diacid = O=C(O)CCCCCCCCCCCCCCC(=O)*; γGlu = O=C(O)[C@H](CCC(=O)[*:2])N[*:1]; αMeL = CC(C)C[C@](C)(N)C(=O)O; αMeP = C[C@@]1(C(=O)O)CCCN1; AEEA = NCCOCCOCC(=O)O; Aib = CC(C)(N)C(=O)O
# Experiments:
# [1] = target: human GLP-1 receptor (GLP-1R) (Homo sapiens, UniProt P43220); test: cAMP pharmacological functional assay in presence of casein, hGLP-1R; type: cell-based; conditions: HEK293 cells expressing hGLP-1R, 0.1% Casein, geometric mean; read-out: hGLP1R cAMP Rel EC50 nM (SEM, n)
# [2] = target: T1, gastric inhibitory peptide receptor (GIPR) (Homo sapiens, UniProt P48546); test: cAMP pharmacological functional assay in presence of casein, hGIPR; type: cell-based; conditions: HEK293 cells expressing hGIPR, 0.1% Casein, geometric mean; read-out: hGIPR cAMP Rel EC50 nM (SEM, n)
# T1 sequence (P48546 22-466): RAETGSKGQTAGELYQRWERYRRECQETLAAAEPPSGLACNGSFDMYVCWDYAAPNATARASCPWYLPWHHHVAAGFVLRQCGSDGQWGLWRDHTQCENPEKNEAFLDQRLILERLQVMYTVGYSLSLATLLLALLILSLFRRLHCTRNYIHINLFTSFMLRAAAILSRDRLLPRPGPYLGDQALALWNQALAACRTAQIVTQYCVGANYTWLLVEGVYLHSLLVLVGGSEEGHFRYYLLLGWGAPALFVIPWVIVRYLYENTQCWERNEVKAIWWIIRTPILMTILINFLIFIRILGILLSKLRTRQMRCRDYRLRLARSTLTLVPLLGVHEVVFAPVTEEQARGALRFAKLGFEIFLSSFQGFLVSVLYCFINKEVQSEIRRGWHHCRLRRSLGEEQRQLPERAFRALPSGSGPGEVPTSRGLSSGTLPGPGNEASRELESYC
# Sequence of human GLP-1 receptor (GLP-1R) (P43220 24-463): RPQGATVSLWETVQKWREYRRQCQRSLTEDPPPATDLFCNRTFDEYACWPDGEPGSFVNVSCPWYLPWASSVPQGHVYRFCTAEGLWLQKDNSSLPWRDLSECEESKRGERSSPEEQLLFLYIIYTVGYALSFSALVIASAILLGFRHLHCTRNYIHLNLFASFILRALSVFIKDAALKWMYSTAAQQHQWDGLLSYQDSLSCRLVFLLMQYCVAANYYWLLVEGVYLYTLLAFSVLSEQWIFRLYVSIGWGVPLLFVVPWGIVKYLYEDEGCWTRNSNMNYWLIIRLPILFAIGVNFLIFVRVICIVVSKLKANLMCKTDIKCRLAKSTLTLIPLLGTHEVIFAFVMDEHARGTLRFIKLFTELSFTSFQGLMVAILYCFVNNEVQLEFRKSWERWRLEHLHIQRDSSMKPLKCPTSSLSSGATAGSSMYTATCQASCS
Compound,EC50 [1] [nM],EC50 [2] [nM]
CC[C@H](C)[C@H](NC(=O)[C@H](CC(C)C)NC(=O)[C@H](Cc1ccc(O)cc1)NC(=O)[C@@H](CCC(=O)O)NC(=O)[C@@H](NC(=O)[C@H](Cc1ccccc1)NC(=O)[C@@H](NC(=O)C(C)(C)NC(=O)[C@H](CCC(N)=O)NC(=O)[C@H](C)NC(=O)[C@H](CCCCNC(=O)COCCOCCNC(=O)COCCOCCNC(=O)CC[C@H](NC(=O)CCCCCCCCCCCCCCC(=O)O)C(=O)O)NC(=O)[C@H](CCC(=O)O)NC(=O)[C@H](CC(=O)O)NC(=O)[C@H](CC(C)C)NC(=O)[C@](C)(CC(C)C)NC(=O)[C@@H](NC(=O)[C@H](CO)NC(=O)[C@H](Cc1c[nH]cn1)NC(=O)[C@H](CC(=O)O)NC(=O)[C@H](CO)NC(=O)[C@@H](NC(=O)[C@](C)(Cc1ccccc1F)NC(=O)[C@@H](NC(=O)CNC(=O)[C@H](CCC(=O)O)NC(=O)C(C)(C)NC(=O)[C@@H](N)Cc1ccc(O)cc1)[C@@H](C)O)[C@@H](C)O)[C@@H](C)CC)[C@@H](C)O)[C@@H](C)CC)C(=O)N[C@@H](CCC(=O)O)C(=O)NCC(=O)NCC(=O)N1CCC[C@H]1C(=O)N[C@@H](CO)C(=O)N[C@@H](CO)C(=O)NCC(=O)N[C@@H](C)C(=O)N1CCC[C@H]1C(=O)N1CCC[C@H]1C(=O)N1CCC[C@H]1C(=O)N[C@@H](CO)C(N)=O [Example 170] (H-Y[Aib]EGT[αMePhe(2-F)]TSDHSI[αMeL]LDEK([AEEA-AEEA-γGlu-C16 diacid])AQ[Aib]TFI[dE]YLIEGGPSSGAPPPS-NH2),10.4,0.569
CC[C@H](C)[C@H](NC(=O)[C@H](CC(C)C)NC(=O)[C@H](Cc1ccc(O)cc1)NC(=O)[C@@H](CCC(=O)O)NC(=O)[C@@H](NC(=O)[C@H](Cc1ccccc1)NC(=O)[C@@H](NC(=O)C(C)(C)NC(=O)[C@H](CCC(N)=O)NC(=O)[C@H](C)NC(=O)[C@H](CCCCNC(=O)COCCOCCNC(=O)COCCOCCNC(=O)CC[C@H](NC(=O)CCCCCCCCCCCCCCCCCCC(=O)O)C(=O)O)NC(=O)[C@H](CCC(=O)O)NC(=O)[C@H](CC(=O)O)NC(=O)[C@H](CC(C)C)NC(=O)[C@](C)(CC(C)C)NC(=O)[C@@H](NC(=O)[C@H](CO)NC(=O)[C@H](Cc1c[nH]cn1)NC(=O)[C@H](CC(=O)O)NC(=O)[C@H](CO)NC(=O)[C@@H](NC(=O)[C@](C)(Cc1ccccc1F)NC(=O)[C@@H](NC(=O)CNC(=O)[C@H](CCC(=O)O)NC(=O)C(C)(C)NC(=O)[C@@H](N)Cc1ccc(O)cc1)[C@@H](C)O)[C@@H](C)O)[C@@H](C)CC)[C@@H](C)O)[C@@H](C)CC)C(=O)N[C@@H](CCC(=O)O)C(=O)NCC(=O)NCC(=O)N1CCC[C@H]1C(=O)N[C@@H](CO)C(=O)N[C@@H](CO)C(=O)NCC(=O)N[C@@H](C)C(=O)N1CCC[C@H]1C(=O)N1CCC[C@H]1C(=O)N1CCC[C@H]1C(=O)N[C@@H](CO)C(N)=O [Example 168] (H-Y[Aib]EGT[αMePhe(2-F)]TSDHSI[αMeL]LDEK([AEEA-AEEA-γGlu-C20 diacid])AQ[Aib]TFI[dE]YLIEGGPSSGAPPPS-NH2),1.8,0.572
CC[C@H](C)[C@H](NC(=O)[C@H](CCCCN)NC(=O)[C@H](CC(=O)O)NC(=O)[C@H](CCCCNC(=O)COCCOCCNC(=O)COCCOCCNC(=O)CC[C@H](NC(=O)CCCCCCCCCCCCCCCCCCC(=O)O)C(=O)O)NC(=O)[C@H](CC(C)C)NC(=O)[C@@H](NC(=O)[C@H](CO)NC(=O)[C@H](Cc1ccc(O)cc1)NC(=O)[C@H](CC(=O)O)NC(=O)[C@H](CO)NC(=O)[C@@H](NC(=O)[C@H](Cc1ccccc1)NC(=O)[C@@H](NC(=O)CNC(=O)[C@H](CCC(=O)O)NC(=O)C(C)(C)NC(=O)[C@@H](N)Cc1ccc(O)cc1)[C@@H](C)O)[C@@H](C)O)[C@@H](C)CC)C(=O)N[C@@H](C)C(=O)N[C@@H](CCC(N)=O)C(=O)NC(C)(C)C(=O)N[C@@H](C)C(=O)N[C@@H](Cc1ccccc1)C(=O)N[C@H](C(=O)N[C@@H](CCC(=O)O)C(=O)N[C@@H](Cc1ccc(O)cc1)C(=O)N[C@@H](CC(C)C)C(=O)N[C@H](C(=O)N[C@@H](CCC(=O)O)C(=O)NCC(=O)NCC(N)=O)[C@@H](C)CC)[C@@H](C)CC [Example 71] (H-Y[Aib]EGTFTSDYSILK([AEEA-AEEA-γGlu-C20 diacid])DKIAQ[Aib]AFIEYLIEGG-NH2),1.02,0.166
CC[C@H](C)[C@H](NC(=O)[C@H](CC(C)C)NC(=O)[C@H](Cc1ccc(O)cc1)NC(=O)[C@@H]1CCCN1C(=O)[C@@H](NC(=O)[C@H](Cc1ccccc1)NC(=O)[C@H](CCC(=O)O)NC(=O)C(C)(C)NC(=O)[C@H](CCC(N)=O)NC(=O)[C@H](C)NC(=O)[C@H](CCCCNC(=O)COCCOCCNC(=O)COCCOCCNC(=O)CC[C@H](NC(=O)CCCCCCCCCCCCCCCCCCC(=O)O)C(=O)O)NC(=O)[C@H](CCC(=O)O)NC(=O)[C@H](CC(=O)O)NC(=O)[C@H](CC(C)C)NC(=O)[C@](C)(CC(C)C)NC(=O)[C@@H](NC(=O)[C@H](CO)NC(=O)[C@H](Cc1ccc(O)cc1)NC(=O)[C@H](CC(=O)O)NC(=O)[C@H](CO)NC(=O)[C@@H](NC(=O)[C@](C)(Cc1ccccc1F)NC(=O)[C@@H](NC(=O)CNC(=O)[C@H](CCC(=O)O)NC(=O)C(C)(C)NC(=O)[C@@H](N)Cc1ccc(O)cc1)[C@@H](C)O)[C@@H](C)O)[C@@H](C)CC)[C@@H](C)CC)C(=O)N[C@@H](CCC(=O)O)C(=O)NCC(=O)NCC(=O)N1CCC[C@H]1C(=O)N[C@@H](CO)C(=O)N[C@@H](CO)C(=O)NCC(=O)N[C@@H](C)C(=O)N1CCC[C@H]1C(=O)N1CCC[C@H]1C(=O)N1CCC[C@H]1C(=O)N[C@@H](CO)C(N)=O [Example 151] (H-Y[Aib]EGT[αMePhe(2-F)]TSDYSI[αMeL]LDEK([AEEA-AEEA-γGlu-C20 diacid])AQ[Aib]EFIPYLIEGGPSSGAPPPS-NH2; N-terminus assumed),1.6,0.41
CC[C@H](C)[C@H](NC(=O)[C@H](CC(C)C)NC(=O)[C@H](Cc1ccc(O)cc1)NC(=O)[C@H](CCC(=O)O)NC(=O)[C@@H](NC(=O)[C@H](Cc1ccccc1)NC(=O)[C@H](C)NC(=O)[C@H](CCC(N)=O)NC(=O)[C@H](CCC(N)=O)NC(=O)[C@H](C)NC(=O)[C@H](CCCCNC(=O)COCCOCCNC(=O)COCCOCCNC(=O)CC[C@H](NC(=O)CCCCCCCCCCCCCCCCC(=O)O)C(=O)O)NC(=O)[C@H](CCC(=O)O)NC(=O)[C@H](CC(=O)O)NC(=O)[C@H](CC(C)C)NC(=O)[C@H](CC(C)C)NC(=O)[C@@H](NC(=O)[C@H](CO)NC(=O)[C@H](Cc1ccc(O)cc1)NC(=O)[C@H](CC(=O)O)NC(=O)[C@H](CO)NC(=O)[C@@H](NC(=O)[C@H](Cc1ccccc1)NC(=O)[C@@H](NC(=O)CNC(=O)[C@H](CCC(=O)O)NC(=O)[C@]1(C)CCCN1C(=O)[C@@H](N)Cc1ccc(O)cc1)[C@@H](C)O)[C@@H](C)O)[C@@H](C)CC)[C@@H](C)CC)C(=O)N[C@@H](CCC(=O)O)C(=O)NCC(=O)NCC(=O)N1CCC[C@H]1C(=O)N[C@@H](CO)C(=O)N[C@@H](CO)C(=O)NCC(N)=O [Example 197] (H-Y[αMeP]EGTFTSDYSILLDEK([AEEA-AEEA-γGlu-C18 diacid])AQQAFIEYLIEGGPSSG-NH2),0.248,0.211
